Reference: patent publication US8440442B2, “Method of assaying 5-FU” (Myriad Genetics, Inc, priority 2009, dated 2013)

Biological target: T1, dihydropyrimidine dehydrogenase (DPD) (Homo sapiens, UniProt Q12882)
T1 construct: from tissue; host or cells: donor whole blood (K2EDTA), plasma separated from it, and WBC/buffy coat
T1 sequence (Q12882 4-1025): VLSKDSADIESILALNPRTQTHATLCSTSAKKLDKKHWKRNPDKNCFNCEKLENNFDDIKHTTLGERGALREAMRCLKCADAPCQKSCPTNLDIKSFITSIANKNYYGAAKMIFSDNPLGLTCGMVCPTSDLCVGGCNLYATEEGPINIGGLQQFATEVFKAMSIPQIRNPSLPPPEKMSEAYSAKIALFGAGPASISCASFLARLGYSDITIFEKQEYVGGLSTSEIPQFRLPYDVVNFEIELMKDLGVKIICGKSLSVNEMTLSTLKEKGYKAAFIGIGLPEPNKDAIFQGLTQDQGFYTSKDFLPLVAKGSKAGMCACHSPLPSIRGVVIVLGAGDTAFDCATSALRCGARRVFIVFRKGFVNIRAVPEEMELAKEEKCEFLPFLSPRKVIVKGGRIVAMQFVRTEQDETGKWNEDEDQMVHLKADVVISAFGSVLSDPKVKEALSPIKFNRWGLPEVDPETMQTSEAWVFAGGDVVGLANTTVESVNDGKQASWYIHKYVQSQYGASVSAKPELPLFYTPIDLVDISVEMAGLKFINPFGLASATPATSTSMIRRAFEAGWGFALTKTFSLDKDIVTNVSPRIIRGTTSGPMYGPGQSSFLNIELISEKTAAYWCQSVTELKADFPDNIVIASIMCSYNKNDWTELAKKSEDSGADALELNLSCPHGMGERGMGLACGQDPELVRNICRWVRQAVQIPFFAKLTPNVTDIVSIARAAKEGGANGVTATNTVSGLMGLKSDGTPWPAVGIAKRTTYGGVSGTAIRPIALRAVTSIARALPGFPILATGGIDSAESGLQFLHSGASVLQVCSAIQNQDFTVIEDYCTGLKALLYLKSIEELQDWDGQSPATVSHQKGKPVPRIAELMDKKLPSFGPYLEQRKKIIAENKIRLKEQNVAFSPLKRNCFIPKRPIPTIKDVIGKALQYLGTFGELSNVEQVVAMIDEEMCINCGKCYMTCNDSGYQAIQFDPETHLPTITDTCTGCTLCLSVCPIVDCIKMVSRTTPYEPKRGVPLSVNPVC
Experiment: 5-Vinyluracil, 5-iodouracil and gimeracil as stabilizer of 5-FU in spiked donor blood
Assay type: biochemical
Details: 500 ng/mL 5-FU; 5-iodouracil 10/40 μg/mL, 5-vinyluracil 5/20 μg/mL, gimeracil 300/1,200 ng/mL; 45 minutes room temperature (FIG. 3)
Protocol: In the following illustrative examples, 5-FU was measured using an antibody-based agglutination assay on the Olympus AU680 Analyzer using an antibody disclosed in U.S. Pat. No. 7,205,116. Specifically, the concentration of 5-FU in a sample is determined based on the absorbance of a sample, which is determined by the amount of aggregation by the nanoparticles. The system requires two reagents, which when mixed in the absence of free 5-FU will form large aggregates of nanoparticles and scatter light to result in a higher absorption value. In the presence of free 5-FU, the agglutination reaction becomes somewhat inhibited and scattering of light is less, causing a lower absorption value. The instrument is calibrated twice monthly, and a curve is generated (Absorbance vs. 5-FU concentration). Absorbance values from individual samples are compared against this curve to determine concentration.
Generally in the agglutination assay, 95 μl of a buffer containing 5-FU-labeled amino-dextran is pipetted to a cuvette, followed by 7 μL of a filtered plasma sample. The sample and reagent are mixed and then incubated for about 3.5 minutes. 95 μl of 5-FU antibody-conjugated nanoparticles is pipetted into the cuvette and mixed. The complete reaction incubates for about 6.2 minutes. A series of 27 measurements at 600 nm are taken at regular intervals by the AU680 analyzer throughout this process, and 5-FU concentration is calculated using the measurements from two specific time points.
Three tubes of blood (spray-on K2EDTA tubes, 10 mL) was drawn from each of six donors, and blood tubes were gently inverted several times to mix anti-coagulant. Blood was pooled and kept separate by donor. An aliquot of each blood sample was transferred to a new conical tube, and a calculated volume of stock 5-FU (at 200 ng/μL) was spiked into each blood sample for a final concentration of 500 ng/mL 5-FU. Each blood sample was aliquotted to a set of four tubes (5 mL blood per tube). Each set of tubes was different, but included a combination of the conditions below: […]

- stabilizing 5-FU in blood samples: effective
SMILES: Oc1cc(O)c(Cl)cn1 [Gimeracil, 5-chloro-2,4-dihydroxypyridine]
